Source: patent publication US20240293441A1, “NEW THERAPEUTIC USE OF TYPE 2 IODOTHYRONINE DEIODINASE (D2) INHIBITORS” (MATERIAS S.R.I, priority 2021, published 2024)

Tests used:
DysE17 flies = experiment: Climbing assay (negative geotaxis) in dystrophic Drosophila fed amiodarone; type: in vivo, Drosophila melanogaster
From the text: The genetic loss-of-function homozygous Drosophila mutant for dystrophin (dys), DysE17 (hiips://flybase.org/reports/FBal0241311.html) was employed as a Duchenne muscular dystrophy model, which carries a point mutation on chromosome 3 (location: 92A10, 3R:19,590,458 . . . 19,590,458) causing a nucleotide change C19590458T and consequently the amino acid change Q2807term|Dys-PA. This is a termination codon determining full-length dys protein to be abnormally shortened. As control, the wild-type Oregon-R strain was used.
The adult wild-type animals and mutant fruit flies were treated with amiodarone at increasing concentrations, supplemented in the food for 30 days.
Eclosed Oregon-R and homozygous DysE17 Drosophila (1-2 days of adult age) were placed in vials (10-15 animals/vials) and reared on 4-5 ml of either the standard medium or medium supplemented with amiodarone at increasing doses (100 nM, 1 μM, 10 μM, 20 μM, and 50 μM). Food was replaced each 5 days. Amiodarone-supplemented diets were freshly prepared by mixing amiodarone with appropriate amounts of standard food just before the administration to animals. At least 3 vials per group were prepared within each experiment. Each experiment was repeated 3 or more times: in total, a minimum of 60 animals per experimental condition was analysed.
• Oregon-R receiving vehicle (DMSO 1:1000); • DysE17 flies receiving vehicle (DMSO 1:1000); • DysE17 flies receiving 100 nM amiodarone; • DysE17 flies receiving 1 μM amiodarone; • DysE17 flies receiving 10 μM amiodarone; • DysE17 flies receiving 20 μM amiodarone; • DysE17 flies receiving 50 μM amiodarone.
Flies were treated for 30 days (treatments ended when animals reached 30 days of adult age), with food renewal each 5 days.
Geotaxis was assessed using a climbing assay (negative geotaxis reflex in opposition to the Earth's gravity). A horizontal line was drawn 15 cm above the bottom of the vial. After a 10 minutes rest period, the flies were tapped to the bottom of the vials: all flies were forced to start climbing (vertical walking). The number of flies that climbed up to the 15 cm mark after 60 seconds was recorded as the percentage success rate. A camera recorded fly movement during the experiment. Each trial was performed three times, at one-minute intervals, and the results averaged. Climbing performance was assessed each 5 days starting from day 1-2 of adult age (just after eclosion) and ending at 30 days.
For the validation study, the climbing efficiency and muscle structure of adult wild-type animals and DysE17 mutants were analyzed after food supplementation with amiodarone at increasing concentrations for 0-30 days (geotaxis assay).

denervated mice = experiment: Denervation (sciatic nerve transection) muscle wasting mouse model with oral amiodarone; type: in vivo
Experimental: Animals were anesthetized by a ketaminexylazine cocktail and a small incision ([…]) was made in the left tight skin. The sciatic nerve was exposed with the help of a small surgical hook and then cut before the separation of sciatic nerve branches. A small (2-5 mm) nerve section was removed to prevent re-innervation. Denervation was performed unilaterally, using the contralateral hindlimb as a negative control. Tissues were collected 2, 6, 12 or 15 days after denervation surgery.
In denervation+/−Amiodarone experiments, mice were treated for 13 days with Amiodarone and were sacrificed 5 days post induced-denervation (from day −7 up day+5 upon denervation).
(§1) Mice (C57BL6 mice) were treated with 0.45 mg/ml Amiodarone (Sigma, A8423, St. Louis, MO, USA) (Bagchiet al., Circulation Research 1987; 60:621-625; Lee et al., Oncotarget, 2015; 6(40): 42976-42987) in drinking water ad libitum starting 1 week before the induced-denervation or cachexia, until sacrifice.
(§2) Preparation of amiodarone: 45 mg dissolved in 1 ml of water for 10 minutes at 80° C.
In denervation mice models, mice were treated with oral amiodarone for 13 days (from day −7 up day+5 upon denervation).

C26-injected mice = experiment: C26 tumor-induced cancer cachexia mouse model with oral amiodarone; type: in vivo
Experimental: Murine colon 26 adenocarcinoma cells (C26) were cultured in DMEM containing 10% fetal bovine serum, 100 U/ml penicillin, and 100 μg/ml streptomycin. For in vivo inoculation, a single suspension of 7×10^6 cells in 100 μl of physiological saline was injected subcutaneously into the right flank of the BALB/c mice. The same volume of physiological saline was injected into the control groups.
In cachexia+/−Amiodarone experiments, mice were treated for 18 days with Amiodarone and were sacrificed 7 days post induced-cachexia. Amiodarone was given from […] (day 1 is the day of cells injection).
as §1, §2
In tumor-induced cachexia mice models, mice were treated with oral amiodarone for 18 days (−7/+11 relative to C26 injection) (FIG. 10A). Matched group of amiodarone-treated and control mice were injected with C26 cells, and muscle wasting was monitored to different days following injection.

pp6 cells = experiment: TNFα-induced cell death (PARP immunoblot) in muscle cells with or without rT3; type: cell-based, mouse; conditions: TNFα 24 h; rT3 30 nM
Experimental: Primary muscle cultures (pp6) were isolated as described (Qu et al., 1998 J Cell Biol 142(5): 1257-1267) from the indicated mouse lines. Immortalized myoblasts (C2C12) were obtained from ATCC. Proliferating cells were cultured in 20% Fetal Bovine Serum Dulbecco's modified Eagle's medium at 37° C. with penicillin/streptomycin. Transient transfections were performed using Lipofectamine 2000 (Life Technologies) according to the manufacturer's instructions. Anti-MyoD (sc-304) and tubulin (sc-8035) antibodies were purchased from Santa Cruz Biotechnology. Anti-Pax7 antibody were from Developmental Studies Hybridoma Bank. Anti-PARP was from Cell Signaling Technology.
Total protein extracts from cells and tissues were run on a 10% sodium dodecyl sulfate-polyacrylamide gel electrophoresis gel and transferred to an Immobilon-P transfer membrane (Millipore, Billerica, MA). The membrane was then blocked with 5% nonfat dry milk in phosphate buffered saline, probed with the primary antibody, washed and incubated with horseradish peroxidase-conjugated donkey anti-rabbit or mouse immunoglobulin G secondary antibody (1:3000), and detected by chemiluminescence (Millipore). After extensive washing, the membrane was incubated with antitubulin-specific or ERK antibody (1:10,000; sc-8035, Santa Cruz, Dallas, TX) as loading control.
In vitro: Pp6 or C2C12 cells were treated with rT3 (30 nM) […]

[1] = test system: mice with CTX-injured tibialis anterior (TA) muscle; experiment: Muscle regeneration after cardiotoxin (CTX) injury in rT3-treated mice; type: in vivo, mouse
Experimental: Animals were anesthetized by a ketaminexylazine cocktail, and 12,5 μl of 60 μg/ml CTX (Naja mossambica mossambica, Sigma-Aldrich) was injected into and along the length of the right tibialis anterior (TA) (Yan, 2003 J Biol Chem 278(10): 8826-8836) and 25 μl into gastrocnemius muscle. CTX was injected on different day from Tam.
The tibialis anterior (TA) muscles were dissected and fixed in isopentane in liquid nitrogen, and sliced into 7 μm sections. The cross-sectional area was analyzed and quantified using CellF*Olympus Imaging Software.
Dissected muscles were snap frozen in liquid nitrogen-cooled isopentane, sectioned (7 μm thick) and stained. For immunofluorescent staining, cells or section were fixed with 4% formaldehyde (PFA) and permeabilized in 0.1% Triton X-100, then blocked with 0.5% goat serum and incubated with primary antibody. Alexa Fluor™ 594/647-conjugated secondary antibody was used. Images were acquired with an IX51 Olympus microscope and the Cell*F software. For hematoxylin/eosin staining (H&E), sections were fixed for 15 min and placed in hematoxylin for 5 min followed washed, and 5 min in Eosin.
(§3) In vivo: mice (C56BL6 mice) were treated systemically with an i.v. injection of 100 μl of 30 ng/μl rT3 (Sigma Aldrich) or PBS vehicle control to consecutive 4 days.
To therapeutically exploit the capacity of D2-depletion to activate stem cells and accelerate muscle tissue repair, mice were treated with oral reverse triiodothyronine (rT3, a specific D2-inhibitor) for 7 days (−5/+2 relative to CTX injury) (FIG. 7A).

[2] = test system: mice with full-thickness skin wounds; experiment: Skin wound healing in rT3-treated mice; type: in vivo, mouse
Experimental: The back fur of mice was shaved and the skin was cleaned with 70% alcohol. The dorsal skin was pulled using forceps and two 8-mm full-thickness skin wounds were created along the midline using a sterile 8 mm circular biopsy punch by pressing through both layers of the skin pull. Skin wound healing was measured every 2-3 days by anesthetizing the animals and imaging the wounded area.
Excisional, full-thickness skin wounds were aseptically made on the dorsal skin by picking up a fold skin at the midline and using a sterile, disposable biopsy punch with a diameter of 8 mm to punch through the two layers of skin. In this manner, two wounds were made on each side of the midline at the same time. Each wound site was digitally photographed using the Nikon FX-35A at the indicated time intervals, and wound areas were determined on photographs using CellF*. Changes in wound areas were expressed as the percentage of the initial wound areas.
as §3
In a similar setting, the present inventors also tested whether D2 inhibition positively affected wound regeneration in skin.

[3] = gastrocnemius, oral amiodarone 13 days (day −7 to +5 upon denervation), vs control
[4] = TA muscle, 11 days after C26 cells injection, vs control
[5] = 7 days post-CTX, oral rT3 for 7 days (−5/+2 relative to CTX injury), vs control

SMILES: CCCCc1oc2ccccc2c1C(=O)c1cc(I)c(OCCN(CC)CC)c(I)c1 [Amiodarone (AMIO), Amiodarone]
- functional deficits vs untreated Dys animals (DysE17 flies; after 25-30 days of treatment): the same functional deficits
- damaged animals (climbing decay) (DysE17 flies; amiodarone 10 μM for 15 days, untreated Dys 35%): 18%
- damaged animals (climbing decay) (DysE17 flies; amiodarone 10 μM for 20 days, untreated Dys 55%): 32%
- most effective concentration on fly mobility (DysE17 flies; doses 100 nM to 50 μM in food, 30 days): 10 µM
- muscle structure of functionally recovered muscles (DysE17 flies; dystrophic mutant flies, chronic amiodarone): still compromised at structural level
- effect on climbing decay of dystrophic animals (DysE17 flies; higher concentrations, 20-50 μM): did not alter the climbing decay
- effect on fly mobility (DysE17 flies; increasing doses from 100 nM to 10 μM): dose-dependent beneficial effect
- effect on mobility at shorter times (DysE17 flies; treatment shorter than 15 days (10 days)): no effects
- muscle wasting (gastrocnemius muscle mass) (denervated mice; after denervation, oral amiodarone 13 days): preserved from massive muscle wasting
- Atrogin-1 mRNA expression (denervated mice; [3]): potently down-regulated
- MuRF-1 mRNA expression (denervated mice; [3]): potently down-regulated
- Atrogin-1 mRNA expression (C26-injected mice; [4]): potently down-regulated
- MuRF-1 mRNA expression (C26-injected mice; [4]): potently down-regulated
- survival (C26-injected mice; after C26 cells injection, control mice about 12.7 days): > 27 days
- tumor weight (C26-injected mice; amiodarone-treated vs control mice, 11 days after C26 cells injection): no significant effects
- muscle wasting (body, heart, TA and GC weight) (C26-injected mice; oral amiodarone for 18 days (−7/+11 relative to C26 injection), vs control): preserved from massive muscle wasting

SMILES: N[C@@H](Cc1ccc(Oc2cc(I)c(O)c(I)c2)c(I)c1)C(=O)O [Reverse triiodothyronine (rT3), 3,3′5′-triiodothyronine]
- TNFα-induced apoptosis (pp6 cells): protected from apoptosis
- fiber size (cross-sectional area) [1, 5]: smaller than control
- number of fibers (H&E) [1, 5]: increased number of fibers
- fiber size (cross-sectional area) ([1]; 21 days after injury, rT3 for 7 days, vs control): larger fibers
- Pax7+/EdU+ cells ([1]; TA sections, rT3 treated mice vs control): increased than control
- regrowth of hair in the shaved area ([2]; later time points following skin wounding (28 days post-injury)): more complete regrowth of hair
- wound repair ([2]; rT3-treated mice vs control): more rapidly and efficiently than control
